From paper PMC10111423, “Antimalarial Imidazopyridines Incorporating an Intramolecular Hydrogen Bonding Motif: Medicinal Chemistry and Mechanistic Studies” (ACS Infectious Diseases, 2023)
Converted amounts (≈) assume the structure as drawn.

Tests used:
[1] = system: β-hematin; experiment: β-Hematin inhibition assay (BHIA), cell-free NP-40 mediated; format: biochemical; conditions: mean of n = 3
Method: page 20: fold to attain six assay concentrations of 100-0.001 μg/mL. […] was used as the reference compound in this assay. The highest concentration of DMSO, which was used as the negative control, had no measurable effect on cell viability. After 44 hours of exposure of the cells to the test compounds, a solution of MTT was added. This was followed by an additional 4 hours of incubation at 37 °C. The assay plates were centrifuged, medium removed, and DMSO was added to the crystals. The amount of formazan was ascertained by measuring the absorbance at 540 nm. GraphPad Prism software was then used to generate IC50 values through a non-linear dose-response curve analysis. β-Hematin Inhibition Assay 20 mM stock solutions of controls and test compounds were made in DMSO. A solution […] was added to every well in columns 1-11 of a 96-well plate. 140 μL of water and 40 μL of 305.5 μM NP-40 were added to column 12 to mediate the formation of beta-hematin. 20 μL of test compounds (20 mM) were added to column 12 and 100 μL of this solution serially diluted to column 2, leaving column 1 blank (0 μM of test compound). 178.8 μL aliquot of hematin stock was suspended in 20 ml of a 1 M acetate buffer at pH 4.9. 100 μL of this hematin […] pH 7.4 and 50% pyridine) and 60 μL of acetone were added to all wells. The absorbances of plate wells were recorded at 405 nm on a SpectraMax plate reader. Sigmoidal dose-response curves with variable slopes were fitted to the absorbance data using GraphPad Prism to obtain the IC50 values for each compound. In vitro Microsomal Stability Assay The in vitro microsomal stability assay was performed in duplicate in a 96-well micro titre […] individually in human (pool of 50, mixed gender), rat (pool of 711, male Sprague Dawley) and mouse (pool of 1634, male CD1) liver microsomes (final protein concentration of 0.4 mg/mL; Xenotech, Kansas, USA), suspended in 0.1M phosphate buffer (pH 7.4). Incubations were S20

[2] = In vitro cytotoxicity MTT assay; format: cell-based, Chinese hamster; conditions: Chinese hamster, Chinese hamster ovarian (CHO) cells; MTT assay
Method: (§1) In vitro cytotoxicity was performed on the Chinese Hamster Ovarian cell line by measuring cellular growth and survival calorimetrically through the MTT assay.[29],[30] The formation of tetrazolium salt was used as a measure of chemosensitivity and growth. (Details of this assay is described in the Supporting Information.) page 19: et al, 1993). The test samples were prepared to a 10 mmol/L stock solution in 100% DMSO. Samples were tested as a suspension if not completely dissolved. Further dilutions to the desired starting concentration were freshly prepared in growth media on each occasion of the experiment. The standard antimalarial drugs chloroquine (CQ) and artesunate (Arts) were used as the reference drug in all experiments. A full dose-response was performed for all compounds […] value). Test samples were tested at a starting concentration of 6mmol/L, which was then serially diluted 2-fold in growth medium to generate the tested concentration range. The same dilution technique was used for all samples. CQ and Arts were tested from a starting concentration of 1μg/mL. The highest concentration of solvent to which the parasites were exposed was <0.1% and has no measurable effect on the parasite viability (data not shown). The assay plate was incubated at 37 °C for 72h in a sealed gas chamber under 3% O2 and 4% CO2 with the balance being N2. After 72h, the wells in the assay plate were gently resuspended, and 15μL from each well was transferred to a duplicate plate containing 100μL of Malstat reagent and 25μL of nitroblue tetrazolium solution in each well. Plates were left to develop for 20 minutes in the dark and then absorbance of each well was quantified using a spectrophotometer at 620nm wavelength. The remaining population of parasites at each concentration of the test compound was determined by comparing the absorbance of each well to the absorbance of a well containing the drug-free control. Survival was plotted against concentration and the IC50 values were obtained using a non-linear dose-response curve fitting analysis via the Dotmatics software platform.2 In vitro Cytotoxicity Assay In vitro cytotoxicity was performed on the Chinese Hamster Ovarian cell line by measuring […] diphenyltetrazolium bromide (MTT) assay.3,4 The formation of tetrazolium salt was used as a measure of chemosensitivity and growth. 2 mg/mL stock solutions of the test compounds were prepared in DMSO and stored at -20 °C until required. The stock solution was subsequently diluted with the assay medium to make up an initial concentration of 100 μg/mL. The initial 100 μg/mL solution is serially diluted 10- S19 page 20: fold to attain six assay concentrations of 100-0.001 μg/mL. […] was used as the reference compound in this assay. The highest concentration of DMSO, which was used as the negative control, had no measurable effect on cell viability. After 44 hours of exposure of the cells to the test compounds, a solution of MTT was added. This was followed by an additional 4 hours of incubation at 37 °C. The assay plates were centrifuged, medium removed, and DMSO was added to the crystals. The amount of formazan was ascertained by measuring the absorbance at 540 nm. GraphPad Prism software was then used to generate IC50 values through a non-linear dose-response curve analysis. β-Hematin Inhibition Assay 20 mM stock solutions of controls and test compounds were made in DMSO. A solution […] was added to every well in columns 1-11 of a 96-well plate. 140 μL of water and 40 μL of 305.5 μM NP-40 were added to column 12 to mediate the formation of beta-hematin. 20 μL of test compounds (20 mM) were added to column 12 and 100 μL of this solution serially diluted to column 2, leaving column 1 blank (0 μM of test compound). 178.8 μL aliquot of hematin stock was suspended in 20 ml of a 1 M acetate buffer at pH 4.9. 100 μL of this hematin suspension was then added into each well, and the plates were incubated for ±5 hrs at 37°C. […]

[3] = system: Chinese hamster ovarian (CHO) cell line; experiment: In vitro cytotoxicity MTT assay; format: cell-based; conditions: CHO vs PfNF54
Method: as §1

[4] = system: chloroquine-sensitive (NF54) strain of P. falciparum; experiment: In vitro asexual blood-stage antiplasmodium pLDH assay, NF54 strain; format: cell-based; conditions: Plasmodium falciparum, NF54; pLDH, 72 h, n ≥ 3; read-out: In vitro antiplasmodium activity IC50 PfNF54 strain
Method: (§2) Compounds were screened against multi-drug-resistant (K1) and sensitive (NF54) strains of P. falciparum in vitro using a parasite lactate dehydrogenase assay (pLDH) (the method is described fully in the Supporting Information). […]
(§3) In vitro Asexual Blood Stage Antiplasmodium Assay
(§4) Parasites were cultured as per the method of Trager and Jensen,1 with modifications. IC50 values were determined using parasite lactate dehydrogenase as a marker for survival (Makler […]
(§5) et al, 1993). The test samples were prepared to a 10 mmol/L stock solution in 100% DMSO.
(§6) Samples were tested as a suspension if not completely dissolved. Further dilutions to the desired starting concentration were freshly prepared in growth media on each occasion of the experiment. The standard antimalarial drugs chloroquine (CQ) and artesunate (Arts) were used as the reference drug in all experiments. A full dose-response was performed for all compounds in a 96-well plate to determine the concentration inhibiting 50% of parasite growth (IC50– value). Test samples were tested at a starting concentration of 6mmol/L, which was then serially diluted 2-fold in growth medium to generate the tested concentration range. The same dilution technique was used for all samples. CQ and Arts were tested from a starting concentration of 1µg/mL. The highest concentration of solvent to which the parasites were exposed was <0.1% and has no measurable effect on the parasite viability (data not shown).
(§7) The assay plate was incubated at 37 °C for 72h in a sealed gas chamber under 3% O2 and 4% CO2 with the balance being N2. After 72h, the wells in the assay plate were gently resuspended, and 15µL from each well was transferred to a duplicate plate containing 100µL of Malstat reagent and 25µL of nitroblue tetrazolium solution in each well. Plates were left to develop for 20 minutes in the dark and then absorbance of each well was quantified using a spectrophotometer at 620nm wavelength.
(§8) The remaining population of parasites at each concentration of the test compound was determined by comparing the absorbance of each well to the absorbance of a well containing […]
(§9) the drug-free control. […]
(§10) The initial 100 µg/mL solution is serially diluted 10-

[5] = Solubility; format: physicochemical; conditions: pH 6.5, aqueous buffer
From the text: Table 1 In Vitro Antiplasmodium Activity, Cytotoxicity, BHIA, and Solubility | column: Solubility pH 6.5, μM

[6] = system: multidrug-resistant (K1) strain of P. falciparum; experiment: In vitro asexual blood-stage antiplasmodium pLDH assay, K1 strain; format: cell-based; conditions: Plasmodium falciparum, 72 h, n ≥ 3, read-out: In vitro antiplasmodium activity IC50 PfK1 strain
Method: as §2, §3, §4, §5, §6, §7, §8, §9, §10

| IC50 [1] | IC50 [4] | solubility [5] | IC50 [6] | SMILES | IC50 at 44 h [2] | SI (selectivity index) = IC50 CHO/IC50 PfNF54 [3] |
| --- | --- | --- | --- | --- | --- | --- |
| 225 µM | 1670 nM | 125 µM (≈ 52 µg/mL) | 1610 nM | CCN(CCNc1cc2[nH]c(C3CCOC3)nc2cn1)Cc1ccc(Cl)cc1O (stereo not drawn) [Compound 2, 5-Chloro-2-((ethyl(2-((2-(tetrahydrofuran-3-yl)-1H-imidazo[4,5-c]pyridin-6-yl)amino)ethyl)amino)methyl)phenol] | > 50 µM | >29.94 |
| 722 µM | 2370 nM | 120 µM (≈ 51.6 µg/mL) | 4190 nM | CCN(CCNc1cc2[nH]c(C3CCOCC3)nc2cn1)Cc1ccc(Cl)cc1O [Compound 3, 5-Chloro-2-((ethyl(2-((2-(tetrahydro-2H-pyran-4-yl)-1H-imidazo[4,5-c]pyridin-6-yl)amino)ethyl)amino)methyl)phenol] | > 50 µM | >21.09 |

More lines, now with the values behind:

| SMILES | IC50 [1] | IC50 [4] | solubility [5] | IC50 [6] | IC50 at 44 h [2] | SI (selectivity index) = IC50 CHO/IC50 PfNF54 [3] |
| --- | --- | --- | --- | --- | --- | --- |
| CCN(CCNc1cc2[nH]c(C3CCCCCC3)nc2cn1)Cc1ccc(Cl)cc1O [Compound 15, 5-Chloro-2-(((2-((2-cycloheptyl-1H-imidazo[4,5-c]pyridin-6-yl)amino)ethyl)(ethyl)amino)methyl)phenol] | 137 µM | 670 nM | 150 µM (≈ 66.3 µg/mL) | 2480 nM | 50 µM | 74.60 |
| CCN(CCNc1cc2[nH]c([C@H]3CC[C@H](C(F)(F)F)CC3)nc2cn1)Cc1ccc(Cl)cc1O [Compound 16, 5-Chloro-2-((ethyl(2-((2-((1r,4r)-4-(trifluoromethyl)cyclohexyl)-1H-imidazo[4,5-c]pyridin-6-yl)amino)ethyl)amino)methyl)phenol] | 127 µM | 560 nM | 135 µM (≈ 67 µg/mL) | 1890 nM | > 50 µM | >89.29 |
| CCN(CCNc1cc2[nH]c(C3CCCN3C)nc2cn1)Cc1ccc(Cl)cc1O (stereo not drawn) [Compound 13, 5-Chloro-2-((ethyl(2-((2-(1-methylpyrrolidin-2-yl)-1H-imidazo[4,5-c]pyridin-6-yl)amino)ethyl)amino)methyl)phenol] | 285 µM | 1030 nM | 175 µM (≈ 75.1 µg/mL) | 3900 nM | > 50 µM | >48.54 |
| CCN(CCNc1cc2[nH]c(C3CCC(OC)CC3)nc2cn1)Cc1ccc(Cl)cc1O (stereo not drawn) [Compound 18, 5-Chloro-2-((ethyl(2-((2-(4-methoxycyclohexyl)-1H-imidazo[4,5-c]pyridin-6-yl)amino)ethyl)amino)methyl)phenol] | 18 µM | 2910 nM | 120 µM (≈ 55 µg/mL) | 2340 nM | > 50 µM | >17.18 |
